Reference: paper PMC6278284, “Synthesis of Jacaranone-Derived Nitrogenous Cyclohexadienones and Their Antiproliferative and Antiprotozoal Activities” (Molecules, 2018)
Several values for one entry are separate records, joined by “and”; a condition that tells them apart may be missing. Equal entries are not always repeated. Where two headings read alike, the source gives them in different places.

Legend:
[1] = system: P. falciparum, strain NF54, erythrocytic stages; assay: In vitro growth inhibition assay of Plasmodium falciparum NF54 ([3H]-hypoxanthine incorporation); type: cell-based; settings: for IC50: Plasmodium falciparum, strain NF54, erythrocytic stages, read-out: P. falc. IC50; for SI (IC50 in L6 cells/IC50 P. falciparum): ratio IC50 L6 / IC50 P. falciparum NF54
Protocol: In vitro activity against erythrocytic stages of P. falciparum was determined by a modified [^3H]-hypoxanthine incorporation assay using the drug-sensitive NF54 strain and the standard drug, chloroquine (Sigma C6628). Briefly, parasite cultures incubated in RPMI 1640 medium with 5% AlbuMAX^TM (without hypoxanthine) were exposed to serial drug dilutions in microtiter plates. After 48 h of incubation at 37 °C in a reduced oxygen atmosphere, 0.5 μCi [^3H]-hypoxanthine was added to each well of the plate. Cultures were incubated for a further 24 h before they were harvested onto glass-fiber filters and washed with distilled water. The radioactivity was counted using a Betaplate^TM liquid scintillation counter (Wallac, Zurich). The results were recorded as counts per minute (CPM) per well at each drug concentration and expressed as a percentage of the untreated controls. IC50 values were calculated from the sigmoidal inhibition curves using Microsoft Excel.

CCRF-CEM leukemia cells = assay: XTT viability assay, CCRF-CEM; type: cell-based; settings: Homo sapiens, 72 h, read-out: metabolic active cells in % of control
Protocol: (§1) Human CCRF-CEM leukemia and MDA-MB-231 breast cancer cells lines were kept in RPMI1640 medium (Gibco®, ThermoFisher Scientific Inc., New York, NY, USA), supplemented with 2 mM L-glutamine (Gibco®), 10% heat-inactivated foetal bovine serum (FBS, Gibco®), 100 units/mL Penicillin (PAA), and 100 µg/mL Streptomycin (Gibco®) (1% Pen/Strep). HCT-116 and U251 cells were cultured in high-glucose Dulbecco’s Modified Eagle Medium (DMEM, Gibco®) containing 2 mM L-glutamine, 10% FBS, and 1% Pen/Strep. MRC-5 cells were grown in Minimum Essential Medium (MEM, Gibco®) supplemented with 2 mM L-glutamine, 10% FBS, and 1% Pen/Strep. All cells were kept in a humidified 5% CO2 atmosphere at 37 °C and passaged at 90% confluence.
(§2) A Cell Proliferation Kit II (XTT) was purchased from Sigma-Aldrich and performed as described previously and in accordance with the manufacturer’s protocol. In brief, adherent cell lines were seeded at a density of 50,000 cells/mL or 100,000 cells/mL (MRC-5) in 96 well plates (100 µL, flat bottom) and grown for 24 h before test compounds were added. Suspension cells (CCRF-CEM) were seeded at 100,000 cells/mL and test compounds were added immediately. After 72 h, XTT solution was added for another 90 min or 4 h (CCRF-CEM cells) and absorbance was measured at 490 nm with a reference wave length of 650 nm (Hidex Sense Microplate Reader 425-301, Hidex, Turku, Finland). Results are expressed as a percentage of the vehicle-treated (0.5% DMSO) control cells. Vinblastine served as the positive control (0.01 µg/mL).

[2] = system: T. brucei rhodesiense, strain STIB900 trypomastigote forms; assay: In vitro growth inhibition assay of Trypanosoma brucei rhodesiense (Alamar Blue); type: cell-based; settings: for SI (IC50 in L6 cells/IC50 T. b. rhodesiense): ratio IC50 L6 / IC50 T. b. rhodesiense STIB900; for IC50: 72 h, strain STIB900, trypomastigote forms, read-out: T.b.rhod. IC50
Protocol: Trypanosoma brucei rhodesiense, STIB 900 strain, and the standard drug, melarsoprol, were used for the assay. Minimum Essential Medium (50 μL) supplemented with 25 mM HEPES, 1g/L additional glucose, 1% MEM non-essential amino acids (100×), 0.2 mM 2-mercaptoethanol, 1 mM Na-pyruvate, and 15% heat-inactivated horse serum was added to each well of a 96-well microtiter plate. Serial drug dilutions of 11 three-fold dilution steps covering a range from 100 to 0.002 μg/mL were prepared. Then, 4 × 10^3 bloodstream forms of T. b. rhodesiense (STIB 900) in 50 μL were added to each well and the plate was incubated at 37 °C under a 5% CO2 atmosphere for 72 h. 10 μL Alamar Blue (resazurin, 12.5 mg in 100 mL double-distilled water) was then added to each well and incubation continued for a further 2–4 h. Then, the plates were read with a Spectramax Gemini XS microplate fluorometer (Molecular Devices Cooperation, Sunnyvale, CA, USA) using an excitation wavelength of 536 nm and an emission wavelength of 588 nm. The IC50 values were calculated from the sigmoidal inhibition curves using the microplate reader software, Softmax Pro (Molecular Devices Cooperation, Sunnyvale, CA, USA). Melarsoprol was used as the control.

[3] = system: L6 cells rat skeletal myoblasts; assay: Cytotoxicity against L6 cells (Alamar Blue); type: cell-based; settings: L6 rat skeletal myoblasts, 72 h; read-out: Cyt. L6 IC50
Protocol: Assays were performed in 96-well microtiter plates, each well containing 100 μL of RPMI 1640 medium supplemented with 1% L-glutamine (200 mM) and 10% foetal bovine serum, and 4000 L6 cells (a […] cell line derived from rat skeletal myoblasts). Serial drug dilutions of 11 threefold dilution steps covering a range from 100 to 0.002 μg/mL were prepared. After 72 h of incubation, the plates were inspected under an inverted microscope to assure growth of the controls and sterile conditions. 10 μL of Alamar Blue solution was then added to each well and the plates incubated for another 2 h. Then, the plates were read with a Spectramax Gemini XS microplate fluorometer (Molecular Devices Cooperation, Sunnyvale, CA, USA) using an excitation wavelength of 536 nm and an emission wavelength of 588 nm. The IC50 values were calculated by linear regression from the sigmoidal dose inhibition curves using the microplate reader software, Softmax Pro (Molecular Devices Cooperation, Sunnyvale, CA, USA). Podophyllotoxin (Sigma P4405) was used as the control.

[4] = system: MRC-5 non-tumorigenic lung fibroblasts; assay: XTT viability assay, MRC-5; type: cell-based, human; settings: 72 h; for cytotoxicity against human MRC-5 cells (in words): 5 µg/mL; for viability at 5 µg/mL / viability at 50 µg/mL: Homo sapiens, MRC5, read-out: metabolic active cells in % of control; for viability at 5 µg/mL: MRC-5, 5 µg/mL; for viability at 50 µg/mL: MRC-5, 50 µg/mL
Protocol: as §1, §2

[5] = system: MDA-MB-231 breast cancer cells; assay: XTT viability assay, MDA-MB-231; type: cell-based; settings: Homo sapiens, 72 h, read-out: metabolic active cells in % of control; for viability at 5 µg/mL: MDA-MB-231, 5 µg/mL; for viability at 50 µg/mL: MDA-MB-231, 50 µg/mL
Protocol: as §1, §2

U251 glioblastoma cells = assay: XTT viability assay, U251; type: cell-based; settings: Homo sapiens, U-251, 72 h, read-out: metabolic active cells in % of control; for viability at 5 µg/mL: U251, 5 µg/mL; for viability at 50 µg/mL: U251, 50 µg/mL
Protocol: as §1, §2

| IC50 [1] | melting point | IC50 ([2]; Trypanosoma brucei) | IC50 [2] | Structure (SMILES) | SI (IC50 in L6 cells/IC50 P. falciparum) [1] | viability at 5 µg/mL (CCRF-CEM leukemia cells) | viability at 50 µg/mL (CCRF-CEM leukemia cells) | SI (IC50 in L6 cells/IC50 T. b. rhodesiense) [2] | IC50 [3] | cytotoxicity against human MRC-5 cells (in words) [4] | viability at 5 µg/mL [4] | viability at 50 µg/mL [4] | viability at 5 µg/mL [5] | viability at 50 µg/mL [5] | viability at 5 µg/mL (U251 glioblastoma cells) | viability at 50 µg/mL (U251 glioblastoma cells) |
| --- | --- | --- | --- | --- | --- | --- | --- | --- | --- | --- | --- | --- | --- | --- | --- | --- |
| 28 µM | 167 to 168 °C |  |  | O=C1C=CC(O)(CCN2C(=O)c3cccnc3C2=O)C=C1 [Compound 13f, N-[2-(1-Hydroxy-4-oxocyclohexa-2,5-dien-1-yl)ethyl]pyridine-2,3-dicarboximide] | 5.5 | 99.8% | 21.7% | 3.4 | 153 µM | did not show any cytotoxicity | 109% | 112% | 112% | 23% | 91.8% | 93.7% |
| 4.42 µM | 151 to 152 °C | 2150 nM |  | O=C1C=CC(O)(CCN2C(=O)C=CC2=O)C=C1 [Compound 13b, N-[2-(1-Hydroxy-4-oxocyclohexa-2,5-dien-1-yl)ethyl]maleimide] | 6.1 | -1.08% | 3.46% | 12.5 | 26.8 µM |  | 14.6% | 0.62% | 1.71% | 6.61% | 95.2% | -0.41% |
| 3.93 µM | 145 to 146 °C | 970 nM |  | O=C1C=CC(O)(CCN2C(=O)C3CC=CCC3C2=O)C=C1 (stereo not drawn) [Compound 13j, N-[2-(1-Hydroxy-4-oxocyclohexa-2,5-dien-1-yl)ethyl]-1,2,3,6-tetrahydrophthalimide] | 2.0 | 89.9% | 15.4% | 8.3 | 8.04 µM | did not show any cytotoxicity | 96.1% | 50.3% | 87.7% | 89% | 96.5% | 76.7% |
| 10.9 µM | 98 to 99 °C | 270 nM |  | O=C1C=CC(O)(CCN2CCOCC2)C=C1 [Compound 14c, N-[2-(1-Hydroxy-4-oxocyclohexa-2,5-dien-1-yl)ethyl]morpholine] | 0.3 | 22.8% | -0.18% | 12.9 | 3.46 µM |  | 141% | 0.79% | 56.8% | 4.33% | 68.3% | 1.11% |
| 11.8 µM | 142 to 143 °C | > 10000 nM | 15300 nM | O=C1C=CC(O)(CCN2C(=O)COCC2=O)C=C1 [Compound 13g, N-[2-(1-Hydroxy-4-oxocyclohexa-2,5-dien-1-yl)ethyl]morpholine-3,5-dione] | 6.6 | 86.9% | 8.05% | 5.1 | 77.5 µM | did not show any cytotoxicity | 116% | 89.6% | 104% | 7.63% | 94.7% | 65.6% |
| 1.28 µM |  | 800 nM |  | O=C1C=CC(O)(CCN2C(=O)C3=C(CCCC3)C2=O)C=C1 [Compound 13i, N-[2-(1-Hydroxy-4-oxocyclohexa-2,5-dien-1-yl)ethyl]-3,4,5,6-tetrahydrophthalimide] |  | 2.26% | 1.23% |  | 3.52 µM |  | 5.69% | 0.51% | 32.4% | 16.6% | 15.9% | 0% |
| 2.91 µM | 103 to 104 °C and 103 °C | 570 nM |  | O=C1C=CC(O)(CCN2Cc3ccccc3C2)C=C1 [Compound 14a, N-[2-(1-Hydroxy-4-oxocyclohexa-2,5-dien-1-yl)ethyl]isoindoline] | 1.0 | 94.6% | 58% | 4.9 | 2.81 µM | did not show any cytotoxicity | 119% | 95.1% | 95% | 92.5% | 99.5% | 95.5% |
